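All cell lines were grown in 96-well plates and treated with compound for 48 hours. GI50 = concentration required for 50% inhibition of growth. Definition used: TGI = concentration required for complete inhibition of growth.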
Tests used:
Assay in all cases: inhibition of tumour cell growth, NCI panel, 48 h
NCI-H226 lung = tested on: NCI-H226 lung
NCI-H23 lung = tested on: NCI-H23 lung
NCI-H460 lung = tested on: NCI-H460 lung
NCI-H522 lung = tested on: NCI-H522 lung
NCI/ADR-RES ovarian = tested on: NCI/ADR-RES ovarian
OVCAR-3 ovarian = tested on: OVCAR-3 ovarian
OVCAR-4 ovarian = tested on: OVCAR-4 ovarian
OVCAR-5 ovarian = tested on: OVCAR-5 ovarian
OVCAR-8 ovarian = tested on: OVCAR-8 ovarian
PC-3 prostate = tested on: PC-3 prostate
RPMI-8226 leukemia = tested on: RPMI-8226 leukemia
RXF 393 renal = tested on: RXF 393 renal
SF-268 CNS = tested on: SF-268 CNS
SF-295 CNS = tested on: SF-295 CNS
SF-539 CNS = tested on: SF-539 CNS
SK-MEL-2 melanoma = tested on: SK-MEL-2 melanoma
SK-MEL-28 melanoma = tested on: SK-MEL-28 melanoma
SK-MEL-5 melanoma = tested on: SK-MEL-5 melanoma
SK-OV-3 ovarian = tested on: SK-OV-3 ovarian
SN12C renal = tested on: SN12C renal
SNB-19 CNS = tested on: SNB-19 CNS
SNB-75 CNS = tested on: SNB-75 CNS
SR leukemia = tested on: SR leukemia
SW-620 colon = tested on: SW-620 colon
T-47D breast = tested on: T-47D breast
TK-10 renal = tested on: TK-10 renal
U251 CNS = tested on: U251 CNS
UACC-257 melanoma = tested on: UACC-257 melanoma
UACC-62 melanoma = tested on: UACC-62 melanoma
UO-31 renal = tested on: UO-31 renal

SMILES: Nc1nc(-c2ccccc2)c(N=Nc2ccc(Cl)cc2Cl)s1
- TGI (NCI-H226 lung): 10.4 µM
- GI50 (NCI-H23 lung): 2.91 µM
- TGI (NCI-H23 lung): 13.5 µM
- GI50 (NCI-H460 lung): 2.92 µM
- TGI (NCI-H460 lung): 11.7 µM
- GI50 (NCI-H522 lung): 2.91 µM
- TGI (NCI-H522 lung): 13.3 µM
- GI50 (NCI/ADR-RES ovarian): 3.03 µM
- TGI (NCI/ADR-RES ovarian): 10.9 µM
- GI50 (OVCAR-3 ovarian): 3.57 µM
- TGI (OVCAR-3 ovarian): 13.2 µM
- GI50 (OVCAR-4 ovarian): 3.82 µM
- TGI (OVCAR-4 ovarian): 17 µM
- GI50 (OVCAR-5 ovarian): 3.58 µM
- TGI (OVCAR-5 ovarian): 15.4 µM
- GI50 (OVCAR-8 ovarian): 5.82 µM
- TGI (OVCAR-8 ovarian): 18.7 µM
- GI50 (PC-3 prostate): 3.16 µM
- TGI (PC-3 prostate): 12.4 µM
- GI50 (RPMI-8226 leukemia): 3.31 µM
- TGI (RPMI-8226 leukemia): 15.2 µM
- GI50 (RXF 393 renal): 3.02 µM
- TGI (RXF 393 renal): 11.7 µM
- GI50 (SF-268 CNS): 4.91 µM
- TGI (SF-268 CNS): 17.8 µM
- GI50 (SF-295 CNS): 3.23 µM
- TGI (SF-295 CNS): 13.2 µM
- GI50 (SF-539 CNS): 2.78 µM
- TGI (SF-539 CNS): 10.5 µM
- GI50 (SK-MEL-2 melanoma): 3.03 µM
- TGI (SK-MEL-2 melanoma): 12.8 µM
- GI50 (SK-MEL-28 melanoma): 4.69 µM
- TGI (SK-MEL-28 melanoma): 16.5 µM
- GI50 (SK-MEL-5 melanoma): 2.6 µM
- TGI (SK-MEL-5 melanoma): 8.66 µM
- GI50 (SK-OV-3 ovarian): 3.86 µM
- TGI (SK-OV-3 ovarian): 16.3 µM
- GI50 (SN12C renal): 3.81 µM
- TGI (SN12C renal): 15.3 µM
- GI50 (SNB-19 CNS): 6.02 µM
- TGI (SNB-19 CNS): 18.7 µM
- GI50 (SNB-75 CNS): 1.57 µM
- TGI (SNB-75 CNS): 8.52 µM
- GI50 (SR leukemia): 3.1 µM
- TGI (SR leukemia): 12.8 µM
- GI50 (SW-620 colon): 2.88 µM
- TGI (SW-620 colon): 13.5 µM
- GI50 (T-47D breast): 1.03 µM
- TGI (T-47D breast): 6.56 µM
- GI50 (TK-10 renal): 5.25 µM
- TGI (TK-10 renal): 14.9 µM
- GI50 (U251 CNS): 4.28 µM
- TGI (U251 CNS): 15.8 µM
- GI50 (UACC-257 melanoma): 4.13 µM
- TGI (UACC-257 melanoma): 16.3 µM
- GI50 (UACC-62 melanoma): 2.45 µM
- TGI (UACC-62 melanoma): 12 µM
- GI50 (UO-31 renal): 1.45 µM
- TGI (UO-31 renal): 11.7 µM
